US20260166162A1, “CARBON CHAIN SUBSTANCE FOR REGULATING TRANSMEMBRANE TRANSPORT AND FLUIDITY OF CELL MEMBRANES, AND PREPARATION AND USE THEREOF” (priority 2022, published 2026)

Experiments:
Epithelial cells = experiment: Interaction of GFP-labelled complexes with cell membrane of epithelial cells (Example II-52, Table II-30); format: cell-based; conditions: GFP-labelled complex, epithelial cells pretreated 4 hours, n=3
Protocol: The fatty acids were combined with water-soluble small molecules to form a complex, which were labeled with GFP fluorescence to detect cell membrane fluorescence. […] After the cells were stably adhered, the water-soluble fatty acid complexes in the following table were added to the cell culture medium. […] The medium with the drug was pipetted and replaced with normal DMEM medium. […] The green fluorescence intensity was analyzed by imageJ (see Table II-30, n=3).

Hela cells = experiment: Cell membrane fluidity (Laurdan fluorescence recovery) in Hela cells; format: cell-based

Work on `CCCCC/C=C/C(=O)OCC1OC(O)C(O)C(O)C1O` (stereo not drawn) [Glucose-t-2-octenoic acid] yielded a Mean fluorescence intensity (Epithelial cells; 0 Hours after medium replaced) of 99.4 ± 3.6, a Mean fluorescence intensity (Epithelial cells; 2 Hours after medium replaced) of 92.5 ± 4.0 and a Mean fluorescence intensity (Epithelial cells; 4 Hours after medium replaced) of 61.4 ± 4.2. For the same compound, the Mean fluorescence intensity (Epithelial cells; 8 Hours after medium replaced) was 42.3 ± 3.3, the Mean fluorescence intensity (Epithelial cells; 12 Hours after medium replaced) was 36.4 ± 4.3 and the Mean fluorescence intensity (Epithelial cells; 24 Hours after medium replaced) was 32.4 ± 6.6.

In the case of `C=CCCCCCCCCC(=O)NCCCCC(N)C(=O)O` (stereo not drawn) [Lys-10-undecenoic acid], the Mean fluorescence intensity (Epithelial cells; 0 Hours after medium replaced) is reported as 135.6 ± 2.4, the Mean fluorescence intensity (Epithelial cells; 2 Hours after medium replaced) is reported as 130.8 ± 6.7 and the Mean fluorescence intensity (Epithelial cells; 4 Hours after medium replaced) is reported as 118.2 ± 9.0. The Mean fluorescence intensity (Epithelial cells; 8 Hours after medium replaced) was 89.5 ± 4.4, the Mean fluorescence intensity (Epithelial cells; 12 Hours after medium replaced) was 58.6 ± 5.7 and the Mean fluorescence intensity (Epithelial cells; 24 Hours after medium replaced) was 49.6 ± 0.5.

`CCC=CCC=CCC=CCC=CCC=CCCCC(=O)NCCCCC(N)C(=O)O` (stereo not drawn) [Lys-EPA] showed a Mean fluorescence intensity (Epithelial cells; 0 Hours after medium replaced) of 123.3 ± 8.8, a Mean fluorescence intensity (Epithelial cells; 2 Hours after medium replaced) of 119.2 ± 3.7 and a Mean fluorescence intensity (Epithelial cells; 4 Hours after medium replaced) of 109.4 ± 1.7. It also gave a Mean fluorescence intensity (Epithelial cells; 8 Hours after medium replaced) of 66.4 ± 4.7, a Mean fluorescence intensity (Epithelial cells; 12 Hours after medium replaced) of 39.4 ± 5.8 and a Mean fluorescence intensity (Epithelial cells; 24 Hours after medium replaced) of 32.5 ± 4.5.

With `CC=CC(=O)NCCCCC(N)C(=O)O` (stereo not drawn) [Lys-crotonic acid] the Mean fluorescence intensity (Epithelial cells; 0 Hours after medium replaced) was 119.3 ± 3.4, the Mean fluorescence intensity (Epithelial cells; 2 Hours after medium replaced) was 120.0 ± 6.6 and the Mean fluorescence intensity (Epithelial cells; 4 Hours after medium replaced) was 98.3 ± 5.5. It also gave a Mean fluorescence intensity (Epithelial cells; 8 Hours after medium replaced) of 55.9 ± 6.7, a Mean fluorescence intensity (Epithelial cells; 12 Hours after medium replaced) of 46.9 ± 3.6 and a Mean fluorescence intensity (Epithelial cells; 24 Hours after medium replaced) of 40.4 ± 5.3.

`CCCCCCCC(=O)NCCCCC(N)C(=O)O` (stereo not drawn) [Lys-n-octanoic acid] showed a Mean fluorescence intensity (Epithelial cells; 0 Hours after medium replaced) of 103.4 ± 3.1, a Mean fluorescence intensity (Epithelial cells; 2 Hours after medium replaced) of 99.3 ± 7.9 and a Mean fluorescence intensity (Epithelial cells; 4 Hours after medium replaced) of 92.4 ± 7.7. For the same compound, the Mean fluorescence intensity (Epithelial cells; 8 Hours after medium replaced) was 45.4 ± 4.7, the Mean fluorescence intensity (Epithelial cells; 12 Hours after medium replaced) was 30.4 ± 7.5 and the Mean fluorescence intensity (Epithelial cells; 24 Hours after medium replaced) was 24.2 ± 8.5.

`CCCCCCCCCCCCCCCCCC(=O)NCCCCC(N)C(=O)O` (stereo not drawn) [Lys-stearic acid] was tested, and the “Fluorescence recovery rate %” value (Hela cells; 2 nM, 20 s) was 64.38%, the “Fluorescence recovery rate %” value (Hela cells; 2 nM, 40 s) was 65.33% and the “Fluorescence recovery rate %” value (Hela cells; 2 nM, 60 s) was 66.78%. For the same compound, the “Fluorescence recovery rate %” value (Hela cells; 2 nM, 80 s) was 65.32%, the “Fluorescence recovery rate %” value (Hela cells; 5 nM, 20 s) was 63.98% and the “Fluorescence recovery rate %” value (Hela cells; 5 nM, 40 s) was 64.03%. The “Fluorescence recovery rate %” value (Hela cells; 5 nM, 60 s) was 64.52%, the “Fluorescence recovery rate %” value (Hela cells; 5 nM, 80 s) was 64.77% and the “Fluorescence recovery rate %” value (Hela cells; 10 nM, 20 s) was 64.41%. The “Fluorescence recovery rate %” value (Hela cells; 10 nM, 40 s) was 64.81%, the “Fluorescence recovery rate %” value (Hela cells; 10 nM, 60 s) was 65.40% and the “Fluorescence recovery rate %” value (Hela cells; 10 nM, 80 s) was 65.86%. The “Fluorescence recovery rate %” value (Hela cells; 50 nM, 20 s) was 65.08%, the “Fluorescence recovery rate %” value (Hela cells; 50 nM, 40 s) was 65.47% and the “Fluorescence recovery rate %” value (Hela cells; 50 nM, 60 s) was 65.55%. The “Fluorescence recovery rate %” value (Hela cells; 50 nM, 80 s) was 66.26%, the “Fluorescence recovery rate %” value (Hela cells; 50 μM, 20 s) was 65.84% and the “Fluorescence recovery rate %” value (Hela cells; 50 μM, 40 s) was 71.51%. The “Fluorescence recovery rate %” value (Hela cells; 50 μM, 60 s) was 75.97%, the “Fluorescence recovery rate %” value (Hela cells; 50 μM, 80 s) was 80.33% and the “Fluorescence recovery rate %” value (Hela cells; 100 μM, 20 s) was 64.77%. The “Fluorescence recovery rate %” value (Hela cells; 100 μM, 40 s) was 70.54%, the “Fluorescence recovery rate %” value (Hela cells; 100 μM, 60 s) was 73.46% and the “Fluorescence recovery rate %” value (Hela cells; 100 μM, 80 s) was 78.44%. It also gave a Mean fluorescence intensity (Epithelial cells; 0 Hours after medium replaced) of 105.3 ± 5.2, a Mean fluorescence intensity (Epithelial cells; 2 Hours after medium replaced) of 103.4 ± 2.7 and a Mean fluorescence intensity (Epithelial cells; 4 Hours after medium replaced) of 98.3 ± 2.5. The Mean fluorescence intensity (Epithelial cells; 8 Hours after medium replaced) was 56.5 ± 5.6, the Mean fluorescence intensity (Epithelial cells; 12 Hours after medium replaced) was 46.7 ± 8.5 and the Mean fluorescence intensity (Epithelial cells; 24 Hours after medium replaced) was 39.0 ± 5.3.

`NC(CCCCNC(=O)CCCCCCCCCCCC(=O)O)C(=O)O` (stereo not drawn) [Lys-tridecanedioic acid] showed a Mean fluorescence intensity (Epithelial cells; 0 Hours after medium replaced) of 134.4 ± 5.7, a Mean fluorescence intensity (Epithelial cells; 2 Hours after medium replaced) of 125.0 ± 6.9 and a Mean fluorescence intensity (Epithelial cells; 4 Hours after medium replaced) of 113.9 ± 4.2. The Mean fluorescence intensity (Epithelial cells; 8 Hours after medium replaced) was 64.3 ± 1.6, the Mean fluorescence intensity (Epithelial cells; 12 Hours after medium replaced) was 48.4 ± 6.8 and the Mean fluorescence intensity (Epithelial cells; 24 Hours after medium replaced) was 42.0 ± 2.6.

`NC(COC(=O)CCCCCCCCCCCCCCCCCCCCC(=O)O)C(=O)O` (stereo not drawn) [Ser-docosanedioic acid] was tested, and the Mean fluorescence intensity (Epithelial cells; 0 Hours after medium replaced) was 114.5 ± 3.3, the Mean fluorescence intensity (Epithelial cells; 2 Hours after medium replaced) was 101.4 ± 6.9 and the Mean fluorescence intensity (Epithelial cells; 4 Hours after medium replaced) was 95.4 ± 5.5. It also gave a Mean fluorescence intensity (Epithelial cells; 8 Hours after medium replaced) of 74.4 ± 2.4, a Mean fluorescence intensity (Epithelial cells; 12 Hours after medium replaced) of 34.5 ± 5.5 and a Mean fluorescence intensity (Epithelial cells; 24 Hours after medium replaced) of 20.4 ± 4.4.

In the case of `NC(COC(=O)CCCCCCCCCCC(=O)O)C(=O)O` (stereo not drawn) [Ser-dodecanedioic acid], the Mean fluorescence intensity (Epithelial cells; 0 Hours after medium replaced) is reported as 127.3 ± 3.5, the Mean fluorescence intensity (Epithelial cells; 2 Hours after medium replaced) is reported as 126.3 ± 5.2 and the Mean fluorescence intensity (Epithelial cells; 4 Hours after medium replaced) is reported as 118.3 ± 7.3. The Mean fluorescence intensity (Epithelial cells; 8 Hours after medium replaced) was 69.3 ± 8.4, the Mean fluorescence intensity (Epithelial cells; 12 Hours after medium replaced) was 59.3 ± 5.5 and the Mean fluorescence intensity (Epithelial cells; 24 Hours after medium replaced) was 45.3 ± 1.6.

For `NC(COC(=O)CCCCCCCCCCCCCCC(=O)O)C(=O)O` (stereo not drawn) [Ser-hexadecanedioic acid], the Mean fluorescence intensity (Epithelial cells; 0 Hours after medium replaced) was 119.6 ± 9.4, the Mean fluorescence intensity (Epithelial cells; 2 Hours after medium replaced) was 116.2 ± 5.1 and the Mean fluorescence intensity (Epithelial cells; 4 Hours after medium replaced) was 93.4 ± 5.3. For the same compound, the Mean fluorescence intensity (Epithelial cells; 8 Hours after medium replaced) was 63.9 ± 4.1, the Mean fluorescence intensity (Epithelial cells; 12 Hours after medium replaced) was 46.0 ± 3.6 and the Mean fluorescence intensity (Epithelial cells; 24 Hours after medium replaced) was 37.6 ± 6.7.

`CCCCCCCCCC(=O)OCC(N)C(=O)O` (stereo not drawn) [Ser-n-decanoic acid] showed a Mean fluorescence intensity (Epithelial cells; 0 Hours after medium replaced) of 115.4 ± 4.4, a Mean fluorescence intensity (Epithelial cells; 2 Hours after medium replaced) of 113.3 ± 6.4 and a Mean fluorescence intensity (Epithelial cells; 4 Hours after medium replaced) of 108.3 ± 4.4. The Mean fluorescence intensity (Epithelial cells; 8 Hours after medium replaced) was 75.5 ± 2.7, the Mean fluorescence intensity (Epithelial cells; 12 Hours after medium replaced) was 56.4 ± 2.4 and the Mean fluorescence intensity (Epithelial cells; 24 Hours after medium replaced) was 39.5 ± 5.7.

Compound `NC(COC(=O)CCCCCCCCCCCCCCCCC(=O)O)C(=O)O` (stereo not drawn) [Ser-octadecanedioic acid] has a Mean fluorescence intensity (Epithelial cells; 0 Hours after medium replaced) of 136.2 ± 8.5, a Mean fluorescence intensity (Epithelial cells; 2 Hours after medium replaced) of 127.3 ± 1.6 and a Mean fluorescence intensity (Epithelial cells; 4 Hours after medium replaced) of 102.3 ± 4.4. For the same compound, the Mean fluorescence intensity (Epithelial cells; 8 Hours after medium replaced) was 76.2 ± 4.6, the Mean fluorescence intensity (Epithelial cells; 12 Hours after medium replaced) was 53.9 ± 7.2 and the Mean fluorescence intensity (Epithelial cells; 24 Hours after medium replaced) was 42.4 ± 5.5.
